Converted amounts (≈) assume the structure as drawn. Where two headings read alike, the source gives them in different places.
What was measured:
[1] = biological target: T1, recombinant full-length human GSK3β (Homo sapiens, UniProt P49841); assay: Luciferase-coupled cell-free GSK3β kinase assay; format: biochemical
T1 construct: recombinant full-length human GSK3β (Upstate); purchased Upstate
Method: For compounds in Tables 1 and 2, IC50 (μM) for GSK3β enzyme in cell free assay is provided as follows:
Luciferase-Coupled Protein Kinase Assays
All coupled-luciferase assays are performed by using a brief incubation with firefly luciferase (Promega) after completion of the kinase assay. KinaseGlo Plus is used for reading kinase reactions with ATP>10 μM, KinaseGlo for ATP <10 μM. The assay volume in a 384-well plate for the kinase reaction is 30 microliters.
10-25 ng of recombinant full-length human GSK3β (Upstate) is incubated in the presence or absence of compound at varying concentrations for 1 hour at 30 degrees Celsius in 20 mM MOPS, pH 7.0, 10 mM magnesium acetate, 0.2 mM EDTA, 2 mM EGTA, 30 mM magnesium chloride, 62.5 μM phospho-glycogen synthase peptide-2, 5 μM ATP, 10 mM β-glycerol phosphate, 1 mM sodium orthovanadate and 1 mM dithiothreitol. Proceed to KinaseGlo luciferase reaction (see below).
Following the completion of the kinase reaction an equal volume of KinaseGlo or KinaseGlo Plus luciferase reagent (Promega) is added and the luminescence read using a luminescence plate reader within 5-10 minutes. Compound activity is expressed as % inhibition relative to maximal inhibition observed at the maximal dose and IC50 values then calculated using curve fitting software (GraphPad Prizm).

[2] = test system: E. coli, ATCC8739; assay: Antibacterial activity (MIC), E. coli; format: cell-based; conditions: Escherichia coli
Text: (§1) As used herein, a minimum inhibitory concentration (MIC) for bacterial growth assay is the lowest level of a compound needed to cause an inhibition to bacterial growth in culture medium. In certain embodiments, the antibacterial activity of compounds herein, measured as MIC.
(§2) In certain embodiments, GSK3 inhibitors provided herein are substantially free of antibacterial activity or having very low antibacterial activity. The antibacterial activity can be measured by methods known in the art by estimating a minimum inhibitory concentration (MIC) for test compounds. A MIC is the lowest level of a compound needed to cause an inhibition to bacterial growth in a culture medium. […] (Clinical and Laboratory Standards Institute. Methods for Dilution Antimicrobial Susceptibility Tests for Bacteria That Grow Aerobically; Approved Standard-Sixth Edition: CLSI document […]. CLSI, Wayne, Pa. (2003))
(§3) Antibacterial activity for E. coli, ATCC8739 andS. aureus Smith expressed as MIC (μM) is provided as follows: […]

[3] = test system: S. aureus Smith; assay: Antibacterial activity (MIC), S. aureus; format: cell-based; conditions: Staphylococcus aureus
Text: as §1, §2, §3

[4] = ATCC8739, Table 2, E. coli ATCC8739, read-out: Antimicrobial MIC [μM] E. Coli
[5] = Table 2, S. aureus Smith, read-out: Antimicrobial MIC [μM] S. aureus
[6] = ATCC8739, Table 1, E. coli ATCC8739, read-out: Antibacterial MIC (μM) E.Coli
[7] = Table 1, read-out: Antibacterial MIC (μM) S. aureus Smith
[8] = ATCC8739, read-out: Antibacterial MIC (μM) E.Coli
[9] = read-out: Antibacterial MIC (μM) S. aureus Smith

T1 sequence (P49841 whole entry): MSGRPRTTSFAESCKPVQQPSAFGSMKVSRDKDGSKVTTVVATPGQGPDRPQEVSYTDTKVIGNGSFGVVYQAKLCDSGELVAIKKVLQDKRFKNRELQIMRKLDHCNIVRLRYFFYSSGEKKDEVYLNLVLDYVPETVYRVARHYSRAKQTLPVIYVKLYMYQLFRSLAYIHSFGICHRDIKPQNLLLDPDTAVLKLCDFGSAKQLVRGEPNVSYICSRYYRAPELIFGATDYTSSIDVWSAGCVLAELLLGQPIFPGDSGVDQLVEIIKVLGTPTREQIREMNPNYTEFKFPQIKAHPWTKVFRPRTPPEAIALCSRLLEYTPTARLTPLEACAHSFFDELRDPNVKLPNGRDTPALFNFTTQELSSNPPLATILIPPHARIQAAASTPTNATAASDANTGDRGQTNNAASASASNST

IC50 ([1]; Table 2) [nM]	MIC [2, 4] [µM]	MIC [3, 5] [µM]	IC50 ([1]; Table 1) [nM]	MIC [2, 6] [µM]	MIC [3, 7] [µM]	SMILES	MIC [2, 8] [µM]	MIC [3, 9] [µM]
< 100	10 to 50 (≈ 4.25 to 21.3 µg/mL)	10 to 50 (≈ 4.25 to 21.3 µg/mL)	–	–	–	CC1(C)COc2c(NCCCc3ccccc3)c(F)c(N)c3c(=O)c(C(=O)O)cn1c23 [compound 38]	–	–
100 to 500	> 50	10 to 50 (≈ 4.12 to 20.6 µg/mL)	–	–	–	CC1(C)COc2c(NCCc3ccncc3)c(F)c(N)c3c(=O)c(C(=O)O)cn1c23 [compound 39]	–	–
100 to 500	> 50	> 50	–	–	–	CC(C)OCCCNc1c(F)c(N)c2c(=O)c(C(=O)O)cn3c2c1OCC3(C)C [compound 40]	–	–
< 100	> 50	> 50	–	–	–	CC1(C)COc2c(NCCCN3CCCC3=O)c(F)c(N)c3c(=O)c(C(=O)O)cn1c23 [compound 41]	–	–
–	–	–	< 100	0.5 to 10 (≈ 0.232 to 4.64 µg/mL)	0.5 to 10 (≈ 0.232 to 4.64 µg/mL)	Nc1c(F)c(NCCNc2cccc3ccccc23)c(F)c2c1c(=O)c(C(=O)O)cn2C1CC1 [compound 43]	–	–
–	–	–	< 100	10 to 50 (≈ 4.78 to 23.9 µg/mL)	10 to 50 (≈ 4.78 to 23.9 µg/mL)	Nc1c(F)c(NCCCc2ccccc2)c(F)c2c1c(=O)c(C(=O)O)cn2CCc1ccccc1 [compound 46]	–	–
–	–	–	< 100	10 to 50 (≈ 4.64 to 23.2 µg/mL)	10 to 50 (≈ 4.64 to 23.2 µg/mL)	Nc1c(F)c(NCCc2ccncc2)c(F)c2c1c(=O)c(C(=O)O)cn2CCc1ccccc1 [compound 47]	–	–
–	–	–	< 100	> 50	> 50	Nc1c(F)c(NCCCn2ccnc2)c(F)c2c1c(=O)c(C(=O)O)cn2CCc1ccccc1 [compound 48]	–	–
–	–	–	500 to 1000	0.5 to 10 (≈ 0.23 to 4.59 µg/mL)	0.5 to 10 (≈ 0.23 to 4.59 µg/mL)	CC(C)OCCCNc1c(F)c(N)c2c(=O)c(C(=O)O)cn(CCc3ccccc3)c2c1F [compound 50]	–	–
< 100	10 to 50 (≈ 4.54 to 22.7 µg/mL)	10 to 50 (≈ 4.54 to 22.7 µg/mL)	–	–	–	CC(C)C[C@H]1COc2c(NCCCc3ccccc3)c(F)c(N)c3c(=O)c(C(=O)O)cn1c23 [compound 50]	–	–
< 100	10 to 50 (≈ 4.55 to 22.8 µg/mL)	10 to 50 (≈ 4.55 to 22.8 µg/mL)	–	–	–	CC(C)C[C@H]1COc2c(NCCNc3ccccn3)c(F)c(N)c3c(=O)c(C(=O)O)cn1c23 [compound 51]	–	–
–	–	–	100 to 500	10 to 50 (≈ 5.29 to 26.4 µg/mL)	10 to 50 (≈ 5.29 to 26.4 µg/mL)	Nc1c(F)c(NCCNc2cccc3ccccc23)c(F)c2c1c(=O)c(C(=O)O)cn2CCc1ccccc1 [compound 51]	–	–
100 to 500	0.5 to 10 (≈ 0.24 to 4.8 µg/mL)	0.5 to 10 (≈ 0.24 to 4.8 µg/mL)	–	–	–	CC1(C)COc2c(NCCCn3cnc4ccccc43)c(F)c(N)c3c(=O)c(C(=O)O)cn(c23)C1 [compound 52]	–	–
–	–	–	< 100	10 to 50 (≈ 4.41 to 22.1 µg/mL)	10 to 50 (≈ 4.41 to 22.1 µg/mL)	Nc1c(F)c(NCCCc2ccccc2)c(F)c2c1c(=O)c(C(=O)O)cn2C1CCCC1 [compound 52]	–	–
–	–	–	100 to 500	10 to 50 (≈ 4.28 to 21.4 µg/mL)	10 to 50 (≈ 4.28 to 21.4 µg/mL)	Nc1c(F)c(NCCc2ccncc2)c(F)c2c1c(=O)c(C(=O)O)cn2C1CCCC1 [compound 53]	–	–
–	–	–	< 100	> 50	> 50	Nc1c(F)c(NCCCn2ccnc2)c(F)c2c1c(=O)c(C(=O)O)cn2C1CCCC1 [compound 54]	–	–
100 to 500	10 to 50 (≈ 4.65 to 23.3 µg/mL)	10 to 50 (≈ 4.65 to 23.3 µg/mL)	–	–	–	CC1(C)Cn2cc(C(=O)O)c(=O)c3c(N)c(F)c(NCCCn4cnc5ccccc54)c(c32)O1 [compound 56]	–	–
–	–	–	< 100	10 to 50 (≈ 4.93 to 24.6 µg/mL)	10 to 50 (≈ 4.93 to 24.6 µg/mL)	Nc1c(F)c(NCCNc2cccc3ccccc23)c(F)c2c1c(=O)c(C(=O)O)cn2C1CCCC1 [compound 56]	–	–
–	–	–	500 to 1000	10 to 50 (≈ 3.83 to 19.2 µg/mL)	10 to 50 (≈ 3.83 to 19.2 µg/mL)	Nc1c(F)c(NCCCCc2ccccc2)c(F)c2c1c(=O)ccn2C1CC1 [compound 57]	–	–

SMILES	IC50 ([1]; Table 2) [nM]	MIC [2, 4] [µM]	MIC [3, 5] [µM]	IC50 ([1]; Table 1) [nM]	MIC [2, 6] [µM]	MIC [3, 7] [µM]	MIC [2, 8] [µM]	MIC [3, 9] [µM]
CC(C)C[C@H]1COc2c(NCCCn3cnc4ccccc43)c(F)c(N)c3c(=O)c(C(=O)O)cn1c23 [compound 48]	< 100	10 to 50 (≈ 4.94 to 24.7 µg/mL)	10 to 50 (≈ 4.94 to 24.7 µg/mL)	–	–	–	–	–
Nc1c(F)c(NCCNc2ccccn2)c(F)c2c1c(=O)c(C(=O)O)cn2CCc1ccccc1 [compound 49]	–	–	–	100 to 500	–	–	10 to 50 (≈ 4.79 to 24 µg/mL)	10 to 50 (≈ 4.79 to 24 µg/mL)
CC(C)[C@H]1COc2c(NCCCn3ccnc3)c(F)c(N)c3c(=O)c(C(=O)O)cn1c23 [compound 54]	< 100	> 50	10 to 50 (≈ 4.29 to 21.5 µg/mL)	–	–	–	–	–
CC(C)OCCCNc1c(F)c(N)c2c(=O)c(C(=O)O)cn(C3CCCC3)c2c1F [compound 55]	–	–	–	< 100	–	–	10 to 50 (≈ 4.23 to 21.2 µg/mL)	10 to 50 (≈ 4.23 to 21.2 µg/mL)
